{
  "source": "ChEMBL document CHEMBL4251601",
  "about": "(Eur J Med Chem, 2018)",
  "key": {"CDK6/cyclin D3": {"target": "CDK6/cyclin D3 (Homo sapiens, UniProt Q00534)", "assay": "Inhibition of CDK6/Cyclin-D3 (unknown origin) using histoneH1 as substrate after 90 mins by ADP-Glo assay", "format": "protein-complex assay"}, "[1]": {"assay": "Clearance in Sprague-Dawley rat at 2 mg/kg, iv administered as single dose by LC-MS/MS analysis", "format": "ADME, organism-based", "details": "in vivo"}, "[2]": {"assay": "AUC (0 to 24 hrs) in Sprague-Dawley rat at 5 mg/kg, po administered as single dose by LC-MS/MS analysis", "format": "ADME, organism-based", "parameters": "time < 24 hr, dose 5 mg/kg, route oral", "details": "in vivo"}, "[3]": {"target": "Cyclin-dependent kinase 4/cyclin D1 (Homo sapiens) (UniProt P11802+P24385)", "assay": "Inhibition of recombinant full length human GST-tagged CDK4/Cyclin-D1 expressed in baculovirus expression system at 0.1 uM by TR-FRET assay relative to control"}, "[4]": {"target": "RAC-gamma serine/threonine-protein kinase (Homo sapiens) (UniProt Q9Y243)", "assay": "Inhibition of recombinant full length human His-tagged AKT3 expressed in baculovirus expression system at 0.1 uM by TR-FRET assay relative to control"}, "[5]": {"target": "Beta-adrenergic receptor kinase 1 (Homo sapiens) (UniProt P25098)", "assay": "Inhibition of recombinant human full length His-tagged GRK2 expressed in baculovirus expression system at 0.1 uM by Z'-Lyte assay relative to control"}, "[6]": {"target": "G protein-coupled receptor kinase 4 (Homo sapiens) (UniProt P32298)", "assay": "Inhibition of recombinant human full length GST-tagged GRK4 expressed in baculovirus expression system at 0.1 uM by Z'-Lyte assay relative to control"}, "[7]": {"target": "G protein-coupled receptor kinase 5 (Homo sapiens) (UniProt P34947)", "assay": "Inhibition of recombinant human full length GST-tagged GRK5 expressed in baculovirus expression system at 0.1 uM by Z'-Lyte assay relative to control"}, "[8]": {"target": "Tyrosine-protein kinase JAK1 (Homo sapiens) (UniProt P23458)", "sequence (P23458 whole entry)": "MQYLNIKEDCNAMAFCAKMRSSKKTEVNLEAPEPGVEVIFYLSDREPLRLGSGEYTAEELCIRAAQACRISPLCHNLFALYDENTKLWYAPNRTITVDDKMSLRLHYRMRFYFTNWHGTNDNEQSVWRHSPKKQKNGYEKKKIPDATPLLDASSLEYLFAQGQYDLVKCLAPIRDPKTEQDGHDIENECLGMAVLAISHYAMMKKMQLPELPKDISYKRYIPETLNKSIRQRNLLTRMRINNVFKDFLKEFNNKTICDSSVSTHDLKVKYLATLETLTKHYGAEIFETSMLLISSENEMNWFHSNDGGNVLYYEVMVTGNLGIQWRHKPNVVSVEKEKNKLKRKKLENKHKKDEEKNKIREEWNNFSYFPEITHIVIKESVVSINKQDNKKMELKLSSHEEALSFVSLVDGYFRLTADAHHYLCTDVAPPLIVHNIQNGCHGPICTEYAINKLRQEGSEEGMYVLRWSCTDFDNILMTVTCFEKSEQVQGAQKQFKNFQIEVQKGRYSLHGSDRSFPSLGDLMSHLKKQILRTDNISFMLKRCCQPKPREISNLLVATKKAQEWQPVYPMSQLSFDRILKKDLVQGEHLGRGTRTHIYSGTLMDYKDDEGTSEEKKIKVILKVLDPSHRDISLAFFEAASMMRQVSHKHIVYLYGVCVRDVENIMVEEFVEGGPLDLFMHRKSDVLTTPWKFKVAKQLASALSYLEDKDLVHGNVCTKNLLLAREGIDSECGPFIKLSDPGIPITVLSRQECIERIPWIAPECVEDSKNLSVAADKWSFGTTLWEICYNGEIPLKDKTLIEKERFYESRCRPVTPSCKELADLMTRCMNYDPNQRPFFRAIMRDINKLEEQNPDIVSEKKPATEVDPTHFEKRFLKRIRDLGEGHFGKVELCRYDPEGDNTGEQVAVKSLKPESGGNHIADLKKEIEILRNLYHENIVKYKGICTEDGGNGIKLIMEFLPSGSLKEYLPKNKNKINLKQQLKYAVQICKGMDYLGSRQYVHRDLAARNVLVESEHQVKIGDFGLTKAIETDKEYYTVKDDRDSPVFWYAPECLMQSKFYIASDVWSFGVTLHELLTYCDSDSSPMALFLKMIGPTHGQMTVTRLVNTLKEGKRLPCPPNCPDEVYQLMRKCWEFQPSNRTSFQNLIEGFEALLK", "assay": "Inhibition of recombinant human GST-tagged JAK1 expressed in baculovirus expression system at 0.1 uM by TR-FRET assay relative to control"}, "[9]": {"target": "Tyrosine-protein kinase JAK2 (Homo sapiens) (UniProt O60674)", "assay": "Inhibition of recombinant human GST-tagged JAK2 expressed in baculovirus expression system at 0.1 uM by TR-FRET assay relative to control"}, "[10]": {"target": "Tyrosine-protein kinase JAK3 (Homo sapiens) (UniProt P52333)", "assay": "Inhibition of recombinant human GST-tagged JAK3 expressed in baculovirus expression system at 0.1 uM by TR-FRET assay relative to control"}, "[11]": {"target": "Serine/threonine-protein kinase 26 (Homo sapiens) (UniProt Q9P289)", "sequence (Q9P289 2-416 limits assumed)": "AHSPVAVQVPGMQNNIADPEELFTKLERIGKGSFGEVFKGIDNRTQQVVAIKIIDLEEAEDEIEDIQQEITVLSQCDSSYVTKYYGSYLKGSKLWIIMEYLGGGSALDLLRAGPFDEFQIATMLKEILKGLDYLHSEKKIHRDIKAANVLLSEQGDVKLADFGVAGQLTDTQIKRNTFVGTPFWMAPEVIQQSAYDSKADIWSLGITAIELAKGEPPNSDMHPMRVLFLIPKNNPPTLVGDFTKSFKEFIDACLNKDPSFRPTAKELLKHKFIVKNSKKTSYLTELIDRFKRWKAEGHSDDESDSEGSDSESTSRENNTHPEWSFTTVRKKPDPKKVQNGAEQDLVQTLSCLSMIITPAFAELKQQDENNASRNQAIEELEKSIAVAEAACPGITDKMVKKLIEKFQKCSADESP", "assay": "Inhibition of recombinant human full length GST-tagged MST4 expressed in baculovirus expression system at 0.1 uM by Z'-Lyte assay relative to control"}, "[12]": {"target": "Mitogen-activated protein kinase 14 (Homo sapiens) (UniProt Q16539)", "sequence (Q16539 whole entry)": "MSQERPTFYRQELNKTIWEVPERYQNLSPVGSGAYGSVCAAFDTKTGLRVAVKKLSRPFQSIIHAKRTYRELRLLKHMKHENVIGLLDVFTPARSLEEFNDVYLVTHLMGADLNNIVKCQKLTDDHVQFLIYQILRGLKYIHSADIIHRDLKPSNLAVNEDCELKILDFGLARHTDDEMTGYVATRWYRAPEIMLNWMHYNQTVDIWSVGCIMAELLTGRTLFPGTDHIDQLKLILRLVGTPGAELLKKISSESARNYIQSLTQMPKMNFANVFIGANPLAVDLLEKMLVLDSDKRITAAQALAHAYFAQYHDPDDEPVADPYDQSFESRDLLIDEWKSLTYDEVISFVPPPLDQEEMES", "assay": "Inhibition of recombinant human full length GST-tagged p38alpha expressed in Escherichia coli at 0.1 uM by Z'-Lyte assay relative to control"}, "[13]": {"target": "Serine/threonine-protein kinase PAK 1 (Homo sapiens) (UniProt Q13153)", "assay": "Inhibition of recombinant human full length GST-tagged PAK1 expressed in baculovirus expression system at 0.1 uM by Z'-Lyte assay relative to control"}, "[14]": {"target": "Serine/threonine-protein kinase PLK1 (Homo sapiens) (UniProt P53350)", "assay": "Inhibition of recombinant human full length His-tagged PLK1 expressed in baculovirus expression system at 0.1 uM by Z'-Lyte assay relative to control"}, "[15]": {"target": "Protein-tyrosine kinase 6 (Homo sapiens) (UniProt Q13882)", "assay": "Inhibition of recombinant human full length His-tagged PTK6 expressed in baculovirus expression system at 0.1 uM by TR-FRET assay relative to control"}, "[16]": {"target": "RAF proto-oncogene serine/threonine-protein kinase (Homo sapiens) (UniProt P04049)", "sequence (P04049 whole entry)": "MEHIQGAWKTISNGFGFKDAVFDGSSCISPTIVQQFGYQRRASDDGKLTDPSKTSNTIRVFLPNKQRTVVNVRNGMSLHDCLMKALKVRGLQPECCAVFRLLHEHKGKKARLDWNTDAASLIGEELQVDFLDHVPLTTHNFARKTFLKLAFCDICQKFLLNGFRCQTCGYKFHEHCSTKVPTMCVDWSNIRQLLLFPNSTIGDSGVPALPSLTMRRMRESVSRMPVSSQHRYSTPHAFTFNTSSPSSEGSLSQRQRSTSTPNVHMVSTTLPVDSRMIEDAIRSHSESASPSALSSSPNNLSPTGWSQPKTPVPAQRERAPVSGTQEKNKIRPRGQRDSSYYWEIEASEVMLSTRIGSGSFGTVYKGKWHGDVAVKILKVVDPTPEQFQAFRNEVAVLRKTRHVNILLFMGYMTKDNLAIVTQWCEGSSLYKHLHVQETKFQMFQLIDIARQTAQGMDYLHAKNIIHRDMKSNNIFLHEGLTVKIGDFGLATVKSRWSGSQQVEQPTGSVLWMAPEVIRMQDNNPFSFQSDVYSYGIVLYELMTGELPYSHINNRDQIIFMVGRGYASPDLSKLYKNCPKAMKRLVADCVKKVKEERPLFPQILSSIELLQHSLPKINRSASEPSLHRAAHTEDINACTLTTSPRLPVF", "assay": "Inhibition of RAF1 (unknown origin) at 0.1 uM by TR-FRET assay relative to control"}, "[17]": {"target": "Proto-oncogene tyrosine-protein kinase Src (Homo sapiens) (UniProt P12931)", "sequence (P12931 2-536 limits assumed)": "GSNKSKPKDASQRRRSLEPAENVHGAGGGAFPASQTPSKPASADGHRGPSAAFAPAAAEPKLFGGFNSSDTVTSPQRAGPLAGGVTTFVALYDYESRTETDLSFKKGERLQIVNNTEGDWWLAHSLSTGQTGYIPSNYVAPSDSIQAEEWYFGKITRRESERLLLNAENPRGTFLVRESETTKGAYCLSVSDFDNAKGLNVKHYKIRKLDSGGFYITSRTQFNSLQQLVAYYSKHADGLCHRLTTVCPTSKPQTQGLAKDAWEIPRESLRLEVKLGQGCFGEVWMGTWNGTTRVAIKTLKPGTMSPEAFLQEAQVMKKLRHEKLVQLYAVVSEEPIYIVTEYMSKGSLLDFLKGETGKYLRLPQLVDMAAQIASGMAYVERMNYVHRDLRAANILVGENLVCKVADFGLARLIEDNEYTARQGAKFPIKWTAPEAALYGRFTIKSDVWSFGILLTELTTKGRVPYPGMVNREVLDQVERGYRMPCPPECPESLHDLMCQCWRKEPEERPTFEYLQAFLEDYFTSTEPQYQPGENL", "assay": "Inhibition of recombinant human full length His-tagged SRC expressed in baculovirus expression system at 0.1 uM by Z'-Lyte assay relative to control"}, "[18]": {"target": "Serine/threonine-protein kinase Chk1 (Homo sapiens) (UniProt O14757)", "assay": "Inhibition of recombinant full length human His-tagged CHK1 expressed in baculovirus expression system at 1 uM by Z'-Lyte assay relative to control"}, "[19]": {"target": "Casein kinase I isoform gamma-1 (Homo sapiens) (UniProt Q9HCP0)", "assay": "Inhibition of recombinant full length human GST-tagged CK1gamma1 expressed in baculovirus expression system at 1 uM by Z'-Lyte assay relative to control"}, "[20]": {"system": "Epidermal growth factor receptor (Homo sapiens), P00533 [UNDEFINED MUTATION]", "sequence (P00533 whole entry, looked up, stated change not applied)": "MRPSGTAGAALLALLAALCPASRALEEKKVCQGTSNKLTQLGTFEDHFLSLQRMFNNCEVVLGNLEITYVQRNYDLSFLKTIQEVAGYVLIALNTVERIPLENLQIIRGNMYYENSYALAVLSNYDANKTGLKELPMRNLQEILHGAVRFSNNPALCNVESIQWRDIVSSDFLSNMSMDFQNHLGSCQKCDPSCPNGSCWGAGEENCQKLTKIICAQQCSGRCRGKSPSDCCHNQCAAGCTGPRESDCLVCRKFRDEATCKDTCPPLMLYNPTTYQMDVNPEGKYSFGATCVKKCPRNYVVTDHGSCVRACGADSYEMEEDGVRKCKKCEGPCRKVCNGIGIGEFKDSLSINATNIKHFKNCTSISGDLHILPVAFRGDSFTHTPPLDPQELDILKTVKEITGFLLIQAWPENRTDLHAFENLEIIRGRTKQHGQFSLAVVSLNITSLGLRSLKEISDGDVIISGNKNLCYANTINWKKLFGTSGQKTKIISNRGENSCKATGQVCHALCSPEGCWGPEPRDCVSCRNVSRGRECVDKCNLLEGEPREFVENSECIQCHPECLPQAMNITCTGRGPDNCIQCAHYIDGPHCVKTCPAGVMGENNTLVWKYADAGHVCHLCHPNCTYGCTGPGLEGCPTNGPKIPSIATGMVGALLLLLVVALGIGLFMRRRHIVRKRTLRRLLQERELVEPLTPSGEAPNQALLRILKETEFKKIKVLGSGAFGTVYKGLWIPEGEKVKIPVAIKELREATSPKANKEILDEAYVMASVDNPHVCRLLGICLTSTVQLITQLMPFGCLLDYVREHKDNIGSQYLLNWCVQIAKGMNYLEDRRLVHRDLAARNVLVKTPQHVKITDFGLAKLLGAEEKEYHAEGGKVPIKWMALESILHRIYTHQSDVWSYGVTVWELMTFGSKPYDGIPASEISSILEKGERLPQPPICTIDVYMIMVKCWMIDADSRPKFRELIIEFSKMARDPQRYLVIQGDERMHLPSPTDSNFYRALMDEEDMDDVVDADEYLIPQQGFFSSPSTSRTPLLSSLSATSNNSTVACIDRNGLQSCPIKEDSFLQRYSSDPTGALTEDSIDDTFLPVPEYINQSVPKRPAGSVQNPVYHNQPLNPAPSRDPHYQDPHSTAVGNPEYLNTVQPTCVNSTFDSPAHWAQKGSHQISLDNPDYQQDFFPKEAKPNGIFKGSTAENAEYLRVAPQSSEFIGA", "assay": "Inhibition of recombinant human EGFR d746 to 750 deletion/T790M mutant at 1 uM by TR-FRET assay relative to control"}, "[21]": {"target": "Ephrin type-A receptor 2 (Homo sapiens) (UniProt P29317)", "assay": "Inhibition of recombinant human GST-tagged EPHA2 cytoplasmic domain expressed in baculovirus expression system at 1 uM by Z'-Lyte assay relative to control"}, "[22]": {"target": "Leucine-rich repeat serine/threonine-protein kinase 2 (Homo sapiens) (UniProt Q5S007)", "assay": "Inhibition of recombinant human GST-tagged LRRK2 (970 to 2527 residues) expressed in baculovirus expression system at 1 uM by TR-FRET assay relative to control"}, "[23]": {"target": "Serine/threonine-protein kinase 26 (Homo sapiens) (UniProt Q9P289)", "assay": "Inhibition of recombinant human full length GST-tagged MST4 expressed in baculovirus expression system at 1 uM by Z'-Lyte assay relative to control"}, "[24]": {"target": "Platelet-derived growth factor receptor beta (Homo sapiens) (UniProt P09619)", "assay": "Inhibition of recombinant human His-tagged PDGFRbeta cytoplasmic domain expressed in baculovirus expression system at 1 uM by Z'-Lyte assay relative to control"}, "[25]": {"target": "Protein kinase C beta type (Homo sapiens) (UniProt P05771)", "assay": "Inhibition of PKCbeta2 (unknown origin) at 1 uM by Z'-Lyte assay relative to control"}, "[26]": {"target": "Proto-oncogene tyrosine-protein kinase Src (Homo sapiens) (UniProt P12931)", "assay": "Inhibition of recombinant human full length His-tagged SRC expressed in baculovirus expression system at 1 uM by Z'-Lyte assay relative to control"}, "[27]": {"target": "Tyrosine-protein kinase Srms (Homo sapiens) (UniProt Q9H3Y6)", "sequence (Q9H3Y6 whole entry)": "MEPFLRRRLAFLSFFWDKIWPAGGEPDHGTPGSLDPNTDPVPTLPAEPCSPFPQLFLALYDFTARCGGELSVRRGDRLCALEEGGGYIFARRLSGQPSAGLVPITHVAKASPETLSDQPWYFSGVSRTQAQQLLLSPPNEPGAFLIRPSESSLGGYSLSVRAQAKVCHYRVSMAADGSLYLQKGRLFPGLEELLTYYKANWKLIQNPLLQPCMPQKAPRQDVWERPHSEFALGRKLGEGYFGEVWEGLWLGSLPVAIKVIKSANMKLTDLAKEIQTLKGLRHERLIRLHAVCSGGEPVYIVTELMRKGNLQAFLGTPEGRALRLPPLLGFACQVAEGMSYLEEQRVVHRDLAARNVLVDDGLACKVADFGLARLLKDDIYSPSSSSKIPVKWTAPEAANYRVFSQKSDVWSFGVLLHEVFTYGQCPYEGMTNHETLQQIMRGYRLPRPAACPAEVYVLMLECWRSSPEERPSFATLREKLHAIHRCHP", "assay": "Inhibition of recombinant human full length GST-tagged SRMS expressed in baculovirus expression system at 1 uM by TR-FRET assay relative to control"}, "[28]": {"assay": "AUC (0 to infinity) in ICR mouse at 5 mg/kg, po administered as single dose by LC-MS/MS analysis", "format": "ADME, organism-based", "parameters": "dose 5 mg/kg, route oral, time infinity", "details": "in vivo"}, "[29]": {"assay": "Fraction unbound in CD-1 mouse brain at 2 uM incubated for 4 hrs by LC/MS/MS analysis based equillibriun dialysis method", "format": "ADME, tissue-based"}, "[30]": {"assay": "Unbound Cmax in CD-1 mouse brain at 10 mg/kg, po administered as single dose by LC-MS/MS analysis", "format": "ADME, organism-based", "details": "in vivo"}, "Mus musculus": {"system": "Mus musculus", "assay": "In vivo inhibition of CDK4/6 in nude mouse xenografted with human COLO205 cells assessed as reduction in Ser-780-phosphorylated Rb level in tumor at 100 mg/kg administered via oral gavage measured after 24 to 48 hrs by Western blot analysis", "format": "functional, organism-based"}},
  "note": "Calls of active or inactive are those of the source. The calls are words filed in the database; no cut-off is given here.",
  "data": [
    {"smiles": "CC1=Nc2c(F)cc(-c3nc(Nc4ccc(C5CCN(C)CC5)cn4)ncc3F)cc2C12CCCC2", "note": "[CROZBACICLIB]", "values": [
      {"measurement": "IC50", "setting": "CDK6/cyclin D3", "value": 1, "unit": "nM"},
      {"measurement": "clearance", "setting": "[1]", "value": 34.9, "unit": "mL/min/kg"},
      {"measurement": "AUC(0-t) at 24 h", "setting": "[2]", "value": 1530, "unit": "ng·h/mL"},
      {"measurement": "inhibition", "setting": "[3]", "value": 106, "unit": "%"},
      {"measurement": "inhibition", "setting": "[4]", "value": 10, "unit": "%"},
      {"measurement": "inhibition", "setting": "[5]", "value": -2, "unit": "%"},
      {"measurement": "inhibition", "setting": "[6]", "value": 0, "unit": "%"},
      {"measurement": "inhibition", "setting": "[7]", "value": -1, "unit": "%"},
      {"measurement": "inhibition", "setting": "[8]", "value": 7, "unit": "%"},
      {"measurement": "inhibition", "setting": "[9]", "value": 24, "unit": "%"},
      {"measurement": "inhibition", "setting": "[10]", "value": 56, "unit": "%"},
      {"measurement": "inhibition", "setting": "[11]", "value": -5, "unit": "%"},
      {"measurement": "inhibition", "setting": "[12]", "value": 0, "unit": "%"},
      {"measurement": "inhibition", "setting": "[13]", "value": -2, "unit": "%"},
      {"measurement": "inhibition", "setting": "[14]", "value": -3, "unit": "%"},
      {"measurement": "inhibition", "setting": "[15]", "value": 14, "unit": "%"},
      {"measurement": "inhibition", "setting": "[16]", "value": -10, "unit": "%"},
      {"measurement": "inhibition", "setting": "[17]", "value": 3, "unit": "%"},
      {"measurement": "inhibition", "setting": "[18]", "value": 0, "unit": "%"},
      {"measurement": "inhibition", "setting": "[19]", "value": 5, "unit": "%"},
      {"measurement": "inhibition", "setting": "[20]", "value": 87, "unit": "%"},
      {"measurement": "inhibition", "setting": "[21]", "value": 4, "unit": "%"},
      {"measurement": "inhibition", "setting": "[22]", "value": 34, "unit": "%"},
      {"measurement": "inhibition", "setting": "[23]", "value": -1, "unit": "%"},
      {"measurement": "inhibition", "setting": "[24]", "value": 20, "unit": "%"},
      {"measurement": "inhibition", "setting": "[25]", "value": 52, "unit": "%"},
      {"measurement": "inhibition", "setting": "[26]", "value": 7, "unit": "%"},
      {"measurement": "inhibition", "setting": "[27]", "value": 6, "unit": "%"},
      {"measurement": "AUC(0-inf)", "setting": "[28]", "value": 2500, "unit": "ng·h/mL"},
      {"measurement": "Fu", "setting": "[29]", "value": 0.04, "unit": "%"},
      {"measurement": "fCmax", "setting": "[30]", "value": 1.03, "unit": "ng/g"},
      {"measurement": "inhibition", "setting": "Mus musculus", "value": "Active"}
    ]}
  ]
}
